Measured values as given in patent publication US12686704B2, “Procoagulant peptides and use thereof” (RAMBAM MED-TECH LTD., priority 2021, dated 2026).

Key:
[1] = test system: human umbilical vein endothelial cells (HUVEC); experiment: HUVEC proliferation, XTT assay; format: cell-based; settings: 2.5 μg/ml and 5 μg/ml; 48 hour; FIG. 5A
Experimental: FIGS. 5A-5B include vertical bar graphs showing that heparanase procoagulant peptides induce human umbilical vein endothelial cells (HUVEC) proliferation. (5A) HUVEC cells were seeded in 96 wells plate (5,000 cells/well). Increasing concentration of peptides 16 and 16AC (2.5 μg/ml, and 5 μg/ml) were added to the cells. […] (5B) Similar experiment as described in 5A, but 10 ng/ml of peptide 7 (TFPI-2 derived inhibitory peptide) was added to the cells for 1 hour prior to the addition of peptide 16 (5 μg/ml) or 16AC (5 μg/ml).
Briefly, HUVEC cells were seeded in 96 wells plate (5,000 cells/well). Increasing concentration of peptides 16 and 16AC (2.5 μg/ml, and 5 μg/ml) were added to the cells.

ICR mice = experiment: Wound healing after full thickness skin incision in ICR mice; format: in vivo, mouse; settings: for number of capillaries (vessels) in wound skin tissue: H&E staining at end of experiment, FIGS. 4D-4E; for wound healing (wound size): S.C. opposite to the wound on alternate days for one week, FIGS. 4A-4B
Experimental: FIGS. 4A-4E include images, micrographs, and graphs showing that that modified heparanase procoagulant peptides of the invention enhance wound healing. (4A) Full thickness incision of 10 mm was made in the back skin of ICR (normal, no genetic background) mice. On alternate days, for one week after surgery, peptide 16 or peptide 16AC was injected subcutaneously (S.C.) opposite to the wound at the indicated dose. Control group was injected the vehicle (PBS). […] Similar results were observed when the peptides were topically applied as a cream preparation (4C). n—number of mice. Mann-Whitney U test was used. Results represent mean±SD, **p<0.001, ***p<0.0001. (4D) At the end of the experiment the mice were sacrificed and the skin tissue from the wound site excised, and histologically analyzed using hematoxylin and eosin (H&E) staining. Representative images are shown. […] The number of capillaries presented reflects the median and range of five different fields. Mann-Whitney U test was used. Results represent mean±SD, *p<0.01, **p<0.001.
Full thickness incision of 10 mm was made in the back skin of ICR (normal, no genetic background) mice. On alternate days, for one week after surgery, peptide 16 was injected sub-cutaneous (S.C.) opposite to the wound at the indicated dose. Control group was injected the vehicle (PBS). […] Similar results were obtained when the peptides were applied topically in a cream preparation (FIG. 4C). At the end of the experiment the mice were sacrificed and the skin tissue from the wound site was analyzed using H&E staining.

HUVEC cells = experiment: Immunostaining of heparanase, TF, TFPI and TFPI-2 in HUVECs; format: cell-based, human; settings: 10 μg/ml; overnight incubation at 37° C.; vs control cells
Experimental: FIGS. 6A-6F include micrographs of immunohistochemistry assays showing that heparanase procoagulant peptides increase the level of heparanase in HUVECs. Ten (10) μg/ml of peptide 16 (6B-6C) or 10 μg/ml of peptide 16AC (6E-6F) was added to HUVEC cells and compared to control cells (6A-6D). After 30 min or overnight incubation at 37° C., the cells were fixed using formaldehyde 4%, permeabilized, blocked and reacted with specific heparanase antibody. […] Images were visualized through ×50 magnitude, with 0.82 MDC objective lens, captured with a Nikon E995 digital camera (Nikon, Tokyo, Japan), and processed with Adobe Photoshop software (Adobe Systems, San Jose, CA, USA).
FIGS. 7A-7F include micrographs of immunohistochemistry assays showing that heparanase procoagulant peptides increase the level of TF in HUVECs. Ten (10) μg/ml of peptide 16 (7B-7C) or 10 μg/ml of peptide 16AC (7E-7F) was added to HUVEC cells and compared to control cells (7A-7D). After 30 min or overnight incubation at 37° C., the cells were fixed using formaldehyde 4%, permeabilized, blocked and reacted with specific TF antibody. Images were visualized through ×50 magnitude, with 0.82 MDC objective lens, captured with a Nikon E995 digital camera (Nikon, Tokyo, Japan), and processed with Adobe Photoshop software (Adobe Systems, San Jose, CA, USA).
FIGS. 8A-8F include micrographs of immunohistochemistry assays showing that heparanase procoagulant peptides increase the level of TFPI in HUVECs. Ten (10) μg/ml of peptide 16 (8B-8C) or 10 μg/ml of peptide 16AC (8E-8F) was added to HUVEC cells and compared to control cells (8A-8D). After 30 min or overnight incubation at 37° C., the cells were fixed using formaldehyde 4%, permeabilized, blocked and reacted with specific TFPI-1 antibody. Images were visualized through ×50 magnitude, with 0.82 MDC objective lens, captured with a Nikon E995 digital camera (Nikon, Tokyo, Japan), and processed with Adobe Photoshop software (Adobe Systems, San Jose, CA, USA).
FIGS. 9A-9F include micrographs of immunohistochemistry assays showing that heparanase procoagulant peptides increase the level of TFPI-2 in HUVECs. Ten (10) μg/ml of peptide 16 (9B-9C) or 10 μg/ml of peptide 16AC (9E-9F) was added to HUVEC cells and compared to control cells (9A-9D). After 30 min or overnight incubation at 37° C., the cells were fixed using formaldehyde 4%, permeabilized, blocked and reacted with specific TFPI-2 antibody. Images were visualized through ×50 magnitude, with 0.82 MDC objective lens, captured with a Nikon E995 digital camera (Nikon, Tokyo, Japan), and processed with Adobe Photoshop software (Adobe Systems, San Jose, CA, USA).
Briefly, 10 μg/ml of peptide 16 or 10 μg/ml of peptide 16AC was added to HUVEC cells and compared to control cells (6A-6D). After 30 min or overnight incubation at 37° C., the cells were fixed using formaldehyde 4%, permeabilized, blocked and reacted with specific antibodies targeting heparanase, TF, TFPI-1, and TFPI-2 (FIGS. 6-9, respectively).

| Substance | cell proliferation [1] | number of capillaries (vessels) in wound skin tissue (ICR mice) | wound healing (wound size) (ICR mice) | TF level (staining) (HUVEC cells) | TFPI level (staining) (HUVEC cells) | TFPI-2 level (staining) (HUVEC cells) | heparanase level (staining) (HUVEC cells) | number of capillaries (vessels) in wound skin tissue (ICR mice; listed as peptide 16AC) |
| --- | --- | --- | --- | --- | --- | --- | --- | --- |
| GSKRRKLRVYLHCT [Peptide 16, peptide comprising the procoagulant domain of heparanase, non-modified] | significant increase in cell proliferation | significant increase of capillaries | significantly enhanced wound healing | strong staining after overnight incubation | strong staining after overnight incubation | strong staining after overnight incubation | strong staining after overnight incubation |  |
| acetyl-GSKRRKLRVYLHCT-amid (Ac-GSKRRKLRVYLHCT-NH2) [Peptide 16AC, peptide 16 comprising a C-terminal amid group and an N-terminal acetyl group] | significant increase in cell proliferation | significantly better effect | significantly better effect on wound size | strong staining after overnight incubation | strong staining after overnight incubation | strong staining after overnight incubation | strong staining after overnight incubation | significant increase of capillaries |
